The values that follow come from US20170027896A1, “METHODS AND COMPOSITIONS FOR THE TREATMENT OF VASCULAR MALFORMATION” (IFOM - FONDAZIONE ISTITUTO FIRC DI ONCOLOGIA MOLECOLARE, priority 2014, published 2017).

The test system of one data set is CCM3-ECKO mice. Briefly: Bleeding and mortality in drug-treated CCM3-ECKO mice. As to conditions: 30 mg/kg body weight intragastrically, daily. The protocol: Sulindac sulfide (Sigma) and sulindac sulfone (Sigma) were both dissolved in DMSO and further diluted 1:50 in corn oil. They were administered intragastrically, daily (30 mg/kg body weight), starting one day after the induction of recombination. The control mice were treated in parallel with vehicle only (corn oil plus 2% DMSO).

For a further data set, the system named is cyclooxygenase. Particulars: reported; cited from earlier work.
Data set [1] has as its system CCM3-knockout endothelial cell line. Briefly: Immunostaining of CCM3-knockout endothelial cell line. The data set is classed as cell-based, mouse. The protocol:
In some experiments, endothelial cell lines from the lungs of CCM3-flox/flox mice (8-10 weeks old) were immortalized in culture through retroviral expression of polyoma middle T gene^60. […] These cells were then maintained in culture for up to 25 passages without detectable changes in the effects of this CCM3 ablation.
Drugs were added to confluent cells for 48 h before the indicated assays. The final concentrations used were: […] (all from Sigma-Aldrich). As all of these were dissolved in DMSO, control treatment (vehicle) was 0.1% DMSO final concentration, as for drug treatment.
Cells cultured in vitro were fixed and stained as described previously^46.
(§1) The following antibodies were used: anti-Pecam (hamster; MAB1398Z, Millipore); anti-b-galactosidase (chicken; ab9361, Abcam); anti-VE-cadherin (rat monoclonal; 550548, BD Biosciences); anti-VE-cadherin (goat; sc-6458, Santa Cruz); anti-active-b-catenin (mouse monoclonal clone 8E7) dephosphorylated on Ser37 and Thr41, Millipore); anti-total-b-catenin (mouse monoclonal; Cell Signaling); anti-S100a4 (rabbit; 07-2274, Millipore); anti-Klf4 (goat; AF3158, R&D); anti-CD44 (rat; 553131, BD Biosciences); anti-ID1 (rabbit; sc-488, Santa Cruz); anti-aSMA (mouse monoclonal; F3777, Sigma); anti-GFP (rabbit; A-6455, Invitrogen); anti-podocalyxin (goat; AF1556, R&D); anti-phospho-histone H3 (rabbit; ab51776, Millipore); anti-CCM3 (rabbit; Eurogentec); anti-p-Smad1 (rabbit; 9516, Cell Signaling); anti-endomucin (rabbit; sc-65495, Santa Cruz); anti-α-tubulin (mouse monoclonal; T9026, Sigma).

Data set [2] concerns b-catenin transcription activity in brain endothelial cells of CCM3-ECKO mice. Description: Immunostaining of brain sections of CCM3-ECKO mice (b-gal reporter, progenitor/EndMT markers, VE-cadherin). Particulars: dpn 9. The format is in vivo, mouse.
Source text: (§2) The CCM3-flox/flox mice were generated at TaconicArtemis (Koeln, Germany). Two P-lox sequences were inserted that flank exons 4 and 5 of the murine CCM3 gene, to produce a loss-of-function mutation after excision by Ore recombinase. These CCM3-flox/flox mice were bred with Cdh5(PAC)-CreERT2 mice (Wang et al, 2010) for tamoxifen-inducible endothelial-cell-specific expression of Ore-recombinase and CCM3 gene recombination. The CCM3-flox/flox-Cdh5(PAC)-CreERT2 mice were further bred with BAT-gal mice (Maretto et al, 2003) to monitor the activation of b-catenin transcription signaling, and with Rosa 26-Enhanced […] Fluorescent Protein (EYFP) (Rosa26EYFP) mice (Srinivas et al, 2001) to monitor the expression of Ore-recombinase through the expression of EYFP. Tamoxifen (Sigma) was dissolved in corn oil and 10% ethanol (at 10 mg/ml), and then diluted 1:5 in corn oil before single intragastric administration to dpn 1-2 pups (35 mg/kg body weight), as described in^14. The control (wild-type) mice included CCM3-flox/flox-Cdh5(PAC)-CreERT2-BAT-gal mice treated with the vehicle used to dissolve the tamoxifen (corn oil plus 2% ethanol), and CCM3^+/+-Cdh5(PAC)-CreERT2-BAT-gal mice treated with tamoxifen.
(§3) Brains and eyes from mice pups were fixed in 3% paraformaldehyde immediately after dissection, and this fixing was continued overnight at 4° C. The retinas were dissected from the eyes just before staining as the whole mount. Fixed brains were embedded in 4% low-melting-point agarose and sectioned along the sagittal axis ([…]) using a vibratome (1000 Plus, The Vibratome Company, St. Louis, Mo., US).
Brain sections and retinas were stained as floating samples in 12-well and 96-well plates, respectively. They were blocked overnight at 4° C. in 1% fish-skin gelatin with 0.5% Triton X100 and 5% donkey serum in phosphate-buffered saline (PBS) containing 0.01% thimerosal. The samples were incubated overnight at 4° C. with the primary antibodies diluted in 1% fish-skin gelatin with 0.25% Triton X100 in PBS containing 0.01% thimerosal. Following washing with 0.1% Triton X100 in PBS, the secondary antibodies were added for 4 h at room temperature in 1% fish-skin gelatin with 0.25% Triton X100 in PBS containing 0.01% thimerosal. The incubation with DAPI was in PBS for 4 h, which was followed by several washes in PBS, post-fixating with 3% paraformaldehyde for 5 min at room temperature, and further washes in PBS. The brain sections were mounted in Vectashield with DAPI, and the coverslips fixed with nail varnish; the retinas were mounted in Prolong gold with DAPI.
as §1

For data set [3], the system named is vascular lesions in the brain of CCM3-ECKO mice. Description: Assessment of lesion burden in brains of CCM3-ECKO mice. The format is in vivo, mouse.
Source text: as §2, §3
For the classification and counting of lesions, entire brains from dpn 9 littermate pups were sectioned and immunostained for Pecam as described above and in the Methods. Sections were then examined under wide-field fluorescence microscopy (10× and 20×). Lesions were classified as described in^63 as mulberry (multiple cavernae, group of more than two contiguous cavernae), single caverna (single dilated vessel with maximal diameter accommodating more than 25 red blood cells), or telangiectases, tortuous small vessels with abnormally dilated lumen). The total numbers of lesions were calculated by summing all of the types of lesions.
As the sections were […], a correction was applied to the number of mulberry lesions, which can span two sections. Therefore, the number of mulberry lesions was divided by […]. The lesions were counted and classified independently by two observers who were blinded to the treatments.
The maximal diameter of the mulberry lesions and single cavernae was used for statistical comparison.

Entries after “also recorded” stand apart in the source; their conditions may differ.

Consider `CSc1ccc(/C=C2/C(C)=C(CC(=O)O)c3cc(F)ccc32)cc1` [sulindac sulfide, (Z)-5-Fluoro-2-methyl-1-[4-(methylthio)benzylidene]indene-3-acetic acid], for which, in the data set with CCM3-ECKO mice, the “bleeding from vascular lesions or mortality versus vehicle-treated mice” value is on record as “did not observe either increased bleeding from vascular lesions or mortality”. The anti-cyclooxygenase activity entry with cyclooxygenase is “inhibits”. Moreover, the “apical distribution of podocalyxin” value in data set [1] is reported as “re-establishes the correct apical distribution”. In data set [1] (48 h), the “VE-cadherin at cell-cell contacts” value is “more localized to cell-cell contacts”; the “nuclear accumulation of active b-catenin / distribution to adherens junctions” value is given as “restored the distribution of active b-catenin to the adherens junctions”; the “overexpression of progenitor/EndMT marker proteins (Klf4, S100a4, Id1, CD44)” value is “strongly reduced; also recorded: inhibited”. Moreover, the “expression of nuclear reporter gene b-gal in endothelial cells of brain vasculature” value in data set [2] (CCM3-ECKO BAT-gal pups) is listed as “abolition; also recorded: inhibited”. In data set [2] (CCM3-ECKO pups), the “VE-cadherin localization at endothelial cell-cell junctions in brain vessels” value is reported as “better localized at endothelial cell-cell junctions”. In data set [2] (CCM3-ECKO pups, immunostaining), the “expression of b-catenin target genes / progenitor and EndMT markers (Klf4, S100a4, Id1) in brain endothelium” value is recorded as “strongly reduces; also recorded: inhibited”. Further, in data set [3] (CCM3-ECKO pups at dpn9, treated from dpn2), the “diameters of cerebral vessels / mulberry budding ends (Pecam immunostaining of brain sections)” value is reported as “greatly reduces”. The “maximal diameter of single cavernae” value in data set [3] (CCM3-ECKO pups dpn 9, 30 mg/kg daily) is given as “did not significantly reduce”. For the same compound, the mean maximal diameter of mulberry lesions (±SD) in data set [3] (CCM3-ECKO pups dpn 9, 30 mg/kg daily, vehicle 386±56 mm) turned out to be 244 ± 38 µm. The “mean number (±SD) of vascular lesions per brain” value in data set [3] (CCM3-ECKO pups dpn 9, 30 mg/kg intragastrically daily, controls 166.8±22 (sulfide study), 153.5±28 (sulfone study)) amounted to 72.6±9.
